One data set concerns the target CYP1A2 (Homo sapiens (Human), UniProt P05177). As to the kind of experiment: CYP450 inhibition in human liver microsomes: CYP1A2. The note with it: read-out: CYP1A2 IC50 Phenacetin; probe substrate phenacetin. For orientation: Liver microsomes are a subcellular fraction often used to study metabolism.
A further data set deals with HIV-1 HT/92/599. The experiment in a line: HIV-1 reverse transcriptase activity after infection of fresh human PBMCs. Format: cell-based. The conditions noted are these: read-out: PBMC/HIV-1HT/92/599 EC50 ± SD; seven days, reverse transcriptase activity. A digest of the protocol: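 PHA-P/IL-2-stimulated fresh human PBMCs infected with HIV-1; supernatant reverse transcriptase activity measured by tritiated TTP incorporation on poly rA/oligo dT, 90 min at 37° C. Toxicity from 7-day uninfected PBMC culture read by XTT; TI = TC50/EC50.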

For a further data set, the system named is rat plasma proteins. As to the kind of experiment: Plasma protein binding by equilibrium dialysis, rat plasma. The conditions noted are these: fraction unbound. The format is in vitro ADME. The procedure: (§1) In assays to estimate binding of test compounds to plasma proteins, test compound solutions (5 μM) are prepared in buffer and species-specific plasma (final DMSO concentration 0.5%). The plasma-containing solution is added to one side of the membrane of an equilibrium dialysis system, and the plasma-free is added to the other side. Dialysis was allowed to reach equilibrium by incubation for two hours at 37° C. The concentration of compound on both sides of the membrane was measured using LC-MS/MS.
A general note: Equilibrium dialysis compares concentrations on both sides of a semipermeable membrane.

In another data set the target is CYP2C9 (Homo sapiens (Human), UniProt P11712). The conditions noted are these: microsomes.
Chain of CYP2C9 (P11712 whole entry): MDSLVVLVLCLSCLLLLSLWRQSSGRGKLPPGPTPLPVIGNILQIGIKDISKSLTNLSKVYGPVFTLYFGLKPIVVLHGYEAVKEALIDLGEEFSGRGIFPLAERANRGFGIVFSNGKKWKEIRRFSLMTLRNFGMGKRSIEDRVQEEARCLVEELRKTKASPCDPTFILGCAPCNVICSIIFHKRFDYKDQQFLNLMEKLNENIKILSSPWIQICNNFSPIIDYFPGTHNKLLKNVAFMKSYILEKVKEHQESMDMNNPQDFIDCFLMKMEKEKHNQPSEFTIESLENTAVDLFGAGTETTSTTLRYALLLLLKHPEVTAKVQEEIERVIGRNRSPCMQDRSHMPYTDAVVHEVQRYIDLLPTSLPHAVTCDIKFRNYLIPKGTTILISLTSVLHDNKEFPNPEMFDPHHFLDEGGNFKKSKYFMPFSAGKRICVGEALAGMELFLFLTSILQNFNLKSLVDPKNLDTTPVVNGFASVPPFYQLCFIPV
The subject of the next data set is beagle dog hepatocytes. The experiment in a line: Metabolic stability in beagle dog hepatocytes. The format is in vitro ADME. The note with it: 0.1 uM.
The subject of data set [1] is cynomolgus monkey hepatocytes. The experiment in a line: Metabolic stability in cynomolgus monkey hepatocytes. The format is in vitro ADME. The note with it: 0.1 uM.
The target of a further data set is CYP3A4 (Homo sapiens (Human), UniProt P08684). As to the kind of experiment: CYP450 inhibition in human liver microsomes: CYP3A4.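 Also: incubation at 37 °C started by adding 1 mM NADPH, with formation of the probe metabolite measured via LC-MS/MS or fluorescent detection.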
Chain of CYP3A4 (P08684 whole entry): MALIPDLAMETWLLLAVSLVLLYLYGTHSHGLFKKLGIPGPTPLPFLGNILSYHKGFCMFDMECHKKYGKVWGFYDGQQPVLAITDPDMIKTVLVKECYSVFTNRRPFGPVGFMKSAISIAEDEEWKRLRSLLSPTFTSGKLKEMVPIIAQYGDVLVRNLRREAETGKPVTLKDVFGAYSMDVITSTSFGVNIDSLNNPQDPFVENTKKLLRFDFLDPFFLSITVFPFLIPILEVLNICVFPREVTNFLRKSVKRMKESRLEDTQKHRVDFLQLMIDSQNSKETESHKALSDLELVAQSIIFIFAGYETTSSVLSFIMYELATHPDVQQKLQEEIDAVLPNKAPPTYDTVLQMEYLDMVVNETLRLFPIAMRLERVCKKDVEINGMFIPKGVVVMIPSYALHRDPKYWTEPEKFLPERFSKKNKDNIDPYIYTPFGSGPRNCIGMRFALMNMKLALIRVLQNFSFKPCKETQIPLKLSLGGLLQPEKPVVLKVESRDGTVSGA
A further data set has as its system Caco-2 cells. The experiment in a line: Bi-directional permeability in Caco-2 monolayers. The conditions noted are these: for Efflux ratio (B→A/A→B): Caco-2 monolayers; for A→B, ×10^−6: human, Caco-2. The procedure: Absorption properties of various compounds were measured using bi-directional permeability assays in Caco-2 cells. […] The efflux ratio is calculated as the ratio of the Papp(B→A)/Papp(A→B).
In general terms: Passage across Caco-2 layers is used to estimate intestinal permeability.

Data set [2] relates to monocyte-derived dendritic cells. The experiment in a line: Cytotoxicity in monocyte-derived dendritic cells (XTT). The format is cell-based, human. An excerpt: Cell viability is directly proportional to the amount of reduced XTT product formed.
A further data set relates to mouse plasma proteins. The experiment in a line: Plasma protein binding by equilibrium dialysis, mouse plasma. Format: in vitro ADME. The conditions noted are these: fraction unbound. The procedure: as §1
Another data set relates to human monocytes. The experiment in a line: Toxicity in human monocytes in the absence of viral infection. As to the method: Fresh human monocytes were infected with the BaL strain of HIV-1 in the presence of test compounds. After seven days in culture, HIV-1 replication was evaluated by measurement of HIV-1 viral capsid protein (p24) in the tissue culture supernatant (Table 7). […] A TI was calculated as described above using TC50 values derived from cell toxicity data in response to test compounds in the absence of viral infection.

The target in another data set is hERG (Homo sapiens (Human), UniProt Q12809). As to the kind of experiment: hERG current (IKr) in HEK-293 cells, whole-cell patch clamp. The note with it: for Mean % inhibition ± SEM (Block of hERG at 0.1 Hz): HEK-293 cells; for IC50: hERG current in HEK-293 cells, whole-cell patch clamp, 0.1 Hz, read-out: IC50 (Block of hERG at 0.1 Hz). Format: cell-based. The procedure: Currents were measured using the whole-cell variant of the patch clamp method. Glass pipettes were produced with tip openings of […] for K current recordings. Pipette tip resistance was approximately 1.0 to 2.0 MΩ when filled with K internal solutions (130 mM KCl, 5 mM MgCl2, 10 mM HEPES, 5 mM EGTA, 5 mM ATP-Na2, pH7.2). An Axopatch 1-B amplifier (Axon Instruments, Foster City, Calif.) was used for whole-cell voltage clamping. Voltage clamp pulses were controlled by pClamp software (ver 9.2, Axon Instruments).
Chain of hERG (Q12809 whole entry): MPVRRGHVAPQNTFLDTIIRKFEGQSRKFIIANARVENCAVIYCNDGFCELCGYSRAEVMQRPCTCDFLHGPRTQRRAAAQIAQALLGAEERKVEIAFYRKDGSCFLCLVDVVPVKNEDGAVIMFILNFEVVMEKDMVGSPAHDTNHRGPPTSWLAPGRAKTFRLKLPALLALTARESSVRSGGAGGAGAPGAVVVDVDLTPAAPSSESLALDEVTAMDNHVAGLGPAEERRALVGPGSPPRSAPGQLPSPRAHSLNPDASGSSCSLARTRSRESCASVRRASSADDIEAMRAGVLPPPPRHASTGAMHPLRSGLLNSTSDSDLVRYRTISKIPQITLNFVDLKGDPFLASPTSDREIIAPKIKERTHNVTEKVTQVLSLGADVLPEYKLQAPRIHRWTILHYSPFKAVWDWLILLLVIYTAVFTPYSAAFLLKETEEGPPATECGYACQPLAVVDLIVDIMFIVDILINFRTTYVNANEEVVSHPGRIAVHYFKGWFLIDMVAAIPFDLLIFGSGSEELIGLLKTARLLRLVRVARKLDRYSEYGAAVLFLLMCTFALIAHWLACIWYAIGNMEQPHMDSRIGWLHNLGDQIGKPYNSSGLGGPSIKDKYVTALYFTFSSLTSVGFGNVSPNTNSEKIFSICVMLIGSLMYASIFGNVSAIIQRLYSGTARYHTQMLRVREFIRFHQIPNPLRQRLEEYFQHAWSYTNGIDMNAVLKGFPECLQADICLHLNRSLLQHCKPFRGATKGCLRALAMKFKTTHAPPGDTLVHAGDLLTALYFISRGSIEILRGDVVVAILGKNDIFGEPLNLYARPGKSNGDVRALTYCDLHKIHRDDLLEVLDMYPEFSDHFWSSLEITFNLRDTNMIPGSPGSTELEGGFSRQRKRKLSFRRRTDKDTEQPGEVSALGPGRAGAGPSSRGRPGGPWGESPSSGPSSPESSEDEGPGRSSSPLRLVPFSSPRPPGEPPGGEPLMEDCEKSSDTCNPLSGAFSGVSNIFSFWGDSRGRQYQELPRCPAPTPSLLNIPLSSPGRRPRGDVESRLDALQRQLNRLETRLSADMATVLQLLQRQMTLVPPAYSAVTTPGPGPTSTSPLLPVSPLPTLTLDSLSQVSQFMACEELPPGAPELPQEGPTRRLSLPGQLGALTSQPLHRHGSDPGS
After rupture of the cell membrane, current kinetics and amplitudes were allowed to stabilize as the cell was dialyzed with internal solution and paced at 0.1 Hz (−75 mV; 500 msec, +10 mV; 500 msec, −40 mV; typically 2-4 minutes). Currents were considered stable if the currents elicited by a series of voltage pulses given at 0.1 Hz were superimposed. Peak hERG current was measured as the maximum outward deflection of the tail current elicited upon return to −40 mV.
Data are presented in Table 19 as the percent reduction of current amplitude. This was measured as current reduction after a steady-state effect had been reached in the presence of drug relative to current amplitude before drug was introduced (control). Each cell served as its own control.

The next data set is described as follows: in vitro. The note with it: dog, microsomes. Format: in vitro ADME. The source says: Metabolic stability of test compounds was studied in dog liver microsomes.
Data set [3] in a line: Metabolic stability in rat liver microsomes. Format: in vitro ADME. An excerpt: Metabolic stability of test compounds was studied in rat liver microsomes.
The mark [4] stands for this setting: read-out: CYP3A4 IC50 Midazolam, probe substrate midazolam.
Setting [5] is: read-out: CYP3A4 IC50 Testosterone, probe substrate testosterone.

“And” between values parts separate entries of the source, which are not always exact repeats. Identical values can stand only once. Like-named read-outs stand apart in the source and are kept apart here. Where only a bound is given, the exact number is not on record here.

Chain of CYP1A2 (P05177 whole entry): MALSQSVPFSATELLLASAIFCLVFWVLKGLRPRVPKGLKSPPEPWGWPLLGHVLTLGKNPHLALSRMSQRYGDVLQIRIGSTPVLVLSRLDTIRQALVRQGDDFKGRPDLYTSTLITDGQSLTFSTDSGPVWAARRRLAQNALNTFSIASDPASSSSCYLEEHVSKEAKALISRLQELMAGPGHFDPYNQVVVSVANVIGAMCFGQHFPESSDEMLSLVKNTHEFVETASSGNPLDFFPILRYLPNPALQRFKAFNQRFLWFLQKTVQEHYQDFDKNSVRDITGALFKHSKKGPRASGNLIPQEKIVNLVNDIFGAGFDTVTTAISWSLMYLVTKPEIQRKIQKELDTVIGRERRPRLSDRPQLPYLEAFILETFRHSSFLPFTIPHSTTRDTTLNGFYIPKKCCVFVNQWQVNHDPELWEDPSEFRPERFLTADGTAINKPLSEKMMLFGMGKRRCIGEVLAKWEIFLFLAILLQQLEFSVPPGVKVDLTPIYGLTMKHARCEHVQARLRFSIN

A word on the IC50: it is the concentration at which inhibition is half-maximal. With `COCCOC(=O)NC(C(=O)NC(Cc1ccccc1)C(O)CN(Cc1ccc(-c2ccccn2)cc1)NC(=O)C(NC(=O)OC)C(C)(C)C)C(C)(C)C` (stereo not shown) [mono-mPEG1-Atazanavir], the IC50 on CYP1A2 was over 25 µM; against CYP2C9, over 25 µM; at CYP3A4 (setting [4]), 2.56 µM; on CYP3A4 (setting [5]), 10.4 µM. Also, the EC50 in the data set on HIV-1 HT/92/599 was under 0.02 µM. The “Rat Plasma Protein Binding Fu ± SD” value in the data set with rat plasma proteins amounted to 0.0793 ± 0.00541. Moreover, the figures for the “CLint ± SEM” value (in the data set with beagle dog hepatocytes; in data set [1]) were 31.1 ± 0.000512 μL/min/10^6 cells and 70.3 ± 0.0027 μL/min/10^6 cells, respectively. The t1/2 with beagle dog hepatocytes stood at 0.742 h; in data set [1], 0.328 h. Further, the “Efflux ratio (B→A/A→B)” value in the data set with Caco-2 cells was found to be 26. Further, the “A→B, ×10^−6” value with Caco-2 cells was found to be 1.25 cm/s. Further, the figures for the TC50 (in [2]; in the data set on human monocytes) were over 1.0 µM and 159.1 µM, respectively. In addition, the “Mouse Plasma Protein Binding Fu ± SD” value in the data set on mouse plasma proteins is recorded as 0.0666 ± 0.00662.

One may read the t½ as the time in which the quantity being followed falls by half. With `COCCOCCOCCOCCOCCOC(=O)NC(C(=O)NC(Cc1ccccc1)C(O)CN(Cc1ccc(-c2ccccn2)cc1)NC(=O)C(NC(=O)OC)C(C)(C)C)C(C)(C)C` (stereo not shown) [mono-mPEG5-Atazanavir], the IC50 at CYP1A2 is over 25 µM; against CYP2C9 it was 23.7 µM; at hERG, over 100 µM; on CYP3A4 (setting [4]) it was 9.35 µM; at CYP3A4 (setting [5]) it was over 25 µM. Moreover, the “Rat Plasma Protein Binding Fu ± SD” value in the data set on rat plasma proteins is on record as 0.307 ± 0.0493. Besides, the “CLint ± SEM” value in data set [1] is on record as 13.8 ± 0.00163 μL/min/10^6 cells. The figures for the t1/2 (in data set [1]; in “in vitro”) were 1.67 h and 14.9 min, respectively. The “Mean % inhibition ± SEM (Block of hERG at 0.1 Hz)” value at hERG (10 μM) is given as 11.2 ± 1.4%; on hERG (30 μM) it was 26.3 ± 2.9%; at hERG (100 μM) it was 43.8 ± 3.9%. In “in vitro”, the Clint came to 93.0 μL/min/mg protein. Moreover, the “Efflux ratio (B→A/A→B)” value with Caco-2 cells is given as 88. For the same compound, the “A→B, ×10^−6” value with Caco-2 cells is given as 0.12 cm/s. In addition, the results for the TC50 (in data set [2]; in the data set on human monocytes) were over 1.0 µM and 120.8 µM, respectively. In the data set on mouse plasma proteins, the “Mouse Plasma Protein Binding Fu ± SD” value is reported as 0.217 ± 0.0103. In [3], this compound came in with a t½ of 57.6 min.

In the case of `COCCOCCOCCOCCOCCOCCOC(=O)NC(C(=O)NC(Cc1ccccc1)C(O)CN(Cc1ccc(-c2ccccn2)cc1)NC(=O)C(NC(=O)OC)C(C)(C)C)C(C)(C)C` (stereo not shown) [mono-mPEG6-Atazanavir], the IC50 was over 25 µM on CYP1A2; over 25 µM against CYP2C9; over 100 µM at hERG; 16.7 µM on CYP3A4 (setting [4]); over 25 µM on CYP3A4 (setting [5]). In addition, the EC50 in the data set on HIV-1 HT/92/599 was 0.108 µM and 0.117 µM and 0.06 µM. In addition, the “Rat Plasma Protein Binding Fu ± SD” value in the data set on rat plasma proteins was found to be 0.451 ± 0.0385. Besides, the figures for the “CLint ± SEM” value (in the data set with beagle dog hepatocytes; in [1]) were 0.209 ± 0.000143 μL/min/10^6 cells and 0.245 ± 0.000245 μL/min/10^6 cells, respectively. Also, the figures for the t1/2 (in the data set on beagle dog hepatocytes; in data set [1]; in “in vitro”) were 110.6 h, 94.33 h and 20.7 min, respectively. The “Mean % inhibition ± SEM (Block of hERG at 0.1 Hz)” value at hERG (10 μM) is 4.4 ± 0.4%; on hERG (30 μM), 12.7 ± 1.3%; on hERG (100 μM), 26.0 ± 1.0%. In addition, the Clint in the data set “in vitro” amounted to 67.1 μL/min/mg protein. In addition, in the data set on Caco-2 cells, the “Efflux ratio (B→A/A→B)” value amounted to 68. Moreover, the “A→B, ×10^−6” value in the data set on Caco-2 cells is listed as 0.11 cm/s. The figures for the TC50 (in data set [2]; in the data set with human monocytes) were over 1.0 µM and 130.2 µM, respectively. For the same compound, in the data set on mouse plasma proteins, the “Mouse Plasma Protein Binding Fu ± SD” value was 0.159 ± 0.0167. In data set [3], this compound yielded a t½ of 104 min.

As for `COCCOCCOCCOCCOCCOCCOCCOC(=O)NC(C(=O)NC(Cc1ccccc1)C(O)CN(Cc1ccc(-c2ccccn2)cc1)NC(=O)C(NC(=O)OC)C(C)(C)C)C(C)(C)C` (stereo not shown) [mono-mPEG7-Atazanavir], the IC50 on CYP1A2 was over 25 µM; against CYP2C9, over 25 µM; at CYP3A4 (setting [4]), 20.1 µM; on CYP3A4 (setting [5]), over 25 µM. Also, the EC50 with HIV-1 HT/92/599 was found to be 0.163 ± 0.03 µM. Further, the “Rat Plasma Protein Binding Fu ± SD” value in the data set with rat plasma proteins turned out to be 0.255 ± 0.0778. Moreover, the “Efflux ratio (B→A/A→B)” value in the data set on Caco-2 cells stood at 52. In addition, the “A→B, ×10^−6” value in the data set on Caco-2 cells is given as 0.10 cm/s. For the same compound, the figures for the TC50 (in [2]; in the data set with human monocytes) were over 1.0 µM and 132.2 µM, respectively. The “Mouse Plasma Protein Binding Fu ± SD” value in the data set with mouse plasma proteins stood at 0.174 ± 0.00791.

The values are drawn from patent publication US10806794B2, “Protease inhibitors having enhanced features” (priority 2008, dated 2020).
